Experimental data taken from the OligoGym collection.
After the bases stand the sugars from the 5' end (letter, count) and the backbone: PS all phosphorothioate, else s phosphorothioate and o phosphodiester by linkage. Methylation of C is not given here. e = 2'-O-(2-methoxyethyl) (MOE); k = constrained ethyl (cEt); d = 2'-deoxy (DNA); m = 2'-O-methyl

Target: HSD17B13
Settings: ASO, HepaRG

Sequence	target mRNA inhibition (1 µM) [%]	other results
CTTGATCTCTTAGCTG (sugars kkdddddddddkekek, PS)	49	
CTTGATGATTCTGACT (sugars k3 d10 k3, PS)	57	
CTTGATGTAGTGGGAG (sugars k3 d1 m1 d8 k3, PS)	67	
CTTGATTAAGGCAAAG (sugars k3 d10 k3, PS)	38	
CTTGCAGAAATTCACC (sugars k3 d10 k3, PS)	40	
CTTTCATAGGGAGACC (sugars k3 d10 k3, PS)	73	target mRNA inhibition (0.02 µM): 20%; target mRNA inhibition (0.078 µM): 2%; target mRNA inhibition (0.313 µM): 54%; target mRNA inhibition (1.25 µM): 75%; target mRNA inhibition (5 µM): 86%
CTTTGAGACTCTTGTT (sugars k3 d10 k3, PS)	61	
CTTTGCAGCATTGATT (sugars k3 d1 m1 d8 k3, PS)	19	
CTTTGCAGCATTGATT (sugars k3 d10 k3, PS)	47	
GAAACCTTCATGCTAG (sugars k3 d10 k3, PS)	31	
GAAATATAGAGGGTCC (sugars k3 d10 k3, PS)	22	
GAAATTCACCTTGACT (sugars k3 d10 k3, PS)	41	
GAAATTGATACACCAA (sugars k3 d9 k3 e1, PS)	64	
GAACAATATGGGATGA (sugars k3 d1 m1 d8 k3, PS)	50	
GAACAATATGGGATGA (sugars k3 d9 k3 e1, PS)	52	
GAACACTTTCACTGGG (sugars k3 d10 k3, PS)	0	
GAAGAAGGACTTTCAT (sugars k3 d10 k3, PS)	40	
GAAGCCACTGTGACGA (sugars k3 d10 k3, PS)	58	
GAAGTGCTTTTGTGAT (sugars k3 d10 k3, PS)	34	
GAAGTGTAATGCTCCC (sugars k3 d10 k3, PS)	71	
GAAGTTTTTAAGAGGC (sugars k3 d10 k3, PS)	64	
GAATAGCAAGCCAACA (sugars k3 d1 m1 d8 k3, PS)	23	
GAATCAAATAGATCCT (sugars k3 d10 k3, PS)	46	
GAATCATTCAGTAGCT (sugars k3 d10 k3, PS)	65	
GAATTCACTATCTCCC (sugars k3 d10 k3, PS)	38	

Sequence	target mRNA inhibition (1 µM) [%]	other results
GAATTTTTGAGGTTGG (sugars k3 d10 k3, PS)	77	target mRNA inhibition (0.02 µM): 17%; target mRNA inhibition (0.078 µM): 26%; target mRNA inhibition (0.313 µM): 62%; target mRNA inhibition (1.25 µM): 92%; target mRNA inhibition (5 µM): 91%
GACAACAGAGTTCTGT (sugars k3 d10 k3, PS)	9	
GACAAGAGTTCTTGCA (sugars k3 d10 k3, PS)	22	
GACAATACAGGATAGA (sugars k3 d10 k3, PS)	43	
GACAATGACATAGACG (sugars k3 d10 k3, PS)	0	
GACAATGGTTGCCACT (sugars k3 d10 k3, PS)	63	
GACAATGTGCAGCTCT (sugars k3 d10 k3, PS)	67	
GACAGAGCAATTTACT (sugars k3 d10 k3, PS)	55	
GACAGTAAAATTATGC (sugars k3 d10 k3, PS)	57	
GACATAACTTCATAGT (sugars k3 d10 k3, PS)	39	
GACATGAAGATTAGTT (sugars k3 d10 k3, PS)	3	
GACCAAGGATATATGA (sugars k3 d10 k3, PS)	48	
GACCAAGTAGCTTACA (sugars k3 d10 k3, PS)	28	
GACCAGGGAATTTATC (sugars k3 d10 k3, PS)	41	
GACCTCTGTGAAAGCC (sugars k3 d10 k3, PS)	46	
GACTACGGACTGGCAA (sugars k3 d10 k3, PS)	60	
GACTGCTGCTAGTGCC (sugars k3 d1 m1 d8 k3, PS)	60	
GACTGCTGCTAGTGCC (sugars k3 d10 k3, PS)	67	
GACTGCTGCTAGTGCC (sugars kkdddddddddkekek, PS)	35	
GACTTCAGAGTTATAC (sugars k3 d10 k3, PS)	16	
GACTTGCCTCATTTAG (sugars k3 d10 k3, PS)	69	
GACTTTCATAGGGAGA (sugars k3 d10 k3, PS)	72	
GAGACAAGAGTTCTTG (sugars k3 d10 k3, PS)	19	
GAGAGAACTTATACAA (sugars k3 d10 k3, PS)	37	
GAGAGCGATAGATCTC (sugars k3 d10 k3, PS)	1	

Sequence	target mRNA inhibition (1 µM) [%]	other results
GAGAGTAATCAGTTTT (sugars k3 d10 k3, PS)	27	
GAGATTTGAAGGTTAG (sugars k3 d10 k3, PS)	82	target mRNA inhibition (0.02 µM): 0%; target mRNA inhibition (0.078 µM): 26%; target mRNA inhibition (0.313 µM): 54%; target mRNA inhibition (1.25 µM): 77%; target mRNA inhibition (5 µM): 92%
GAGAUAAAGCTGCCTG (sugars k3 d1 m1 d8 k3, PS)	39	
GAGCCTAAAATTGTCT (sugars k3 d10 k3, PS)	49	
GAGGAATGGCTAGGAT (sugars k3 d10 k3, PS)	47	
GAGGAGTTAGGGAGCC (sugars k3 d10 k3, PS)	36	
GAGGCTAGGGAAATCT (sugars k3 d10 k3, PS)	56	
GAGGTAGCTTTTGTCC (sugars k3 d10 k3, PS)	59	
GAGTATAAATGGCAAT (sugars k3 d10 k3, PS)	53	
GAGTATGACAACTGGA (sugars k3 d10 k3, PS)	23	
GAGTCGGATTATTTTT (sugars k3 d10 k3, PS)	44	
GAGTCGGTCACCTTTC (sugars kkdddddddddkekek, PS)	62	
GAGTGCATCTTAAGAT (sugars k3 d10 k3, PS)	43	
GAGTTGCACCGTTTTG (sugars k3 d10 k3, PS)	48	
GATAAAATAGGGTGCA (sugars k3 d10 k3, PS)	52	
GATAAGAAGAGAGCTC (sugars k3 d10 k3, PS)	36	
GATAAGTAGATGGTAA (sugars k3 d10 k3, PS)	59	
GATACAAATTTATTGG (sugars k3 d10 k3, PS)	33	
GATACATACCACTCTT (sugars k3 d10 k3, PS)	52	
GATACCAGTTTTTCCC (sugars k3 d10 k3, PS)	75	
GATACCTGAAAAGCCC (sugars k3 d10 k3, PS)	49	
GATAGATCTCTTCTCT (sugars k3 d10 k3, PS)	0	
GATCATTCCTGCTAGT (sugars k3 d10 k3, PS)	35	
GATCTTAAGGATCATT (sugars k3 d10 k3, PS)	0	
GATGAGGTAAGGAATC (sugars k3 d10 k3, PS)	0	

Sequence	target mRNA inhibition (1 µM) [%]	other results
GATGATGTTCATGGCT (sugars k3 d10 k3, PS)	86	target mRNA inhibition (0.02 µM): 3%; target mRNA inhibition (0.078 µM): 17%; target mRNA inhibition (0.313 µM): 70%; target mRNA inhibition (1.25 µM): 85%
GATGCTCCATAATAAT (sugars kkdddddddddkekek, PS)	17	
GATGGTAAGTCAAATA (sugars k3 d10 k3, PS)	85	target mRNA inhibition (0.02 µM): 22%; target mRNA inhibition (0.078 µM): 34%; target mRNA inhibition (0.313 µM): 47%; target mRNA inhibition (1.25 µM): 74%; target mRNA inhibition (5 µM): 90%
GATGTAGTGGGAGTCG (sugars k3 d9 k3 e1, PS)	42	
GATGTATACATTACCT (sugars k3 d10 k3, PS)	67	
GATGTTAGGACCCAGT (sugars k3 d10 k3, PS)	64	
GATGTTCATGGCTTTG (sugars k3 d10 k3, PS)	81	target mRNA inhibition (0.02 µM): 0%; target mRNA inhibition (0.078 µM): 5%; target mRNA inhibition (0.313 µM): 75%; target mRNA inhibition (1.25 µM): 68%
GATGUAGTGGGAGTCG (sugars k3 d1 m1 d8 k3, PS)	35	
GATTAAGCAGAATTGT (sugars k3 d1 m1 d8 k3, PS)	28	
GATTAAGCAGAATTGT (sugars k3 d10 k3, PS)	37	
GATTAAGGCAAAGATC (sugars k3 d10 k3, PS)	25	
GATTAATCATGGGACA (sugars k3 d10 k3, PS)	9	
GATTAATCTTGATGCT (sugars k3 d10 k3, PS)	26	
GATTAGTCTTGATGTA (sugars k3 d10 k3, PS)	65	
GATTCGAAACTATTCA (sugars k3 d10 k3, PS)	57	
GATTGCACAAACCACA (sugars k3 d10 k3, PS)	73	
GATTGGAATGCTACTT (sugars kkdddddddddkekek, PS)	53	
GATTTGAAGGTTAGAT (sugars k3 d10 k3, PS)	47	
GATTTTTGGTGAACCC (sugars k3 d10 k3, PS)	30	
GCAAATGTAAGAAGCC (sugars k3 d10 k3, PS)	4	
GCAAGCCAACAGAGAG (sugars k3 d9 k3 e1, PS)	38	
GCAAGCCAACAGAGAG (sugars k3 d10 k3, PS)	52	
GCACAAGCACACTGTA (sugars k3 d10 k3, PS)	7	
GCACCCCATGGATCTA (sugars k3 d10 k3, PS)	35	
GCACCGTTTTGGGCTA (sugars k3 d9 k3 e1, PS)	45	
